Laboratory results taken from patent publication US20260224714A1, “CYCLING LYSOSOMAL TARGETING ANTIBODY CONJUGATES” (Lycia Therapeutics, Inc., priority 2023, published 2026).

How the values were obtained:
Type in all cases: cell-based
[1] = tested on: Alexa Fluor647 labelled human IgE; test: Uptake assay: internalization of Alexa Fluor 647 labelled IgE in ASGPR1/2 KO HepG2 cells (Example 6); conditions: equimolar conjugate and AF647 IgE, normalized to unconjugated parent protein
Method: (§1) The following experiments were performed with HepG2 hepatocellular carcinoma cells, grown in Eagle's Minimal Essential Media (EMEM) supplemented with 10% FBS and penicillin/streptomycin.
(§2) HepG2 cells (25,000) were plated in 96-well plates 48 hours before the experiment was performed. On the day of the experiment, indicated the conjugate was mixed with an equimolar stock of Alexa Fluor647 labelled human IgE (Enzo Life Sciences, BPD-DIA-HE 1) in fresh EMEM as a 600 nM stock. The precomplexed conjugate:IgE mixture was incubated at room temperature for 30 minutes. During the precomplexing step, media from HepG2 was removed, and 40 ul of EMEM with 1/100 Fc Receptor Blocking Solution (Biolegend Human TruStain FcX, 422302) was added. Cells incubated in the receptor blocking solution for 10 minutes while making serial dilutions (1:3) of conjugate:IgE stock solution in EMEM. 40 ul of the conjugate:IgE mixture in EMEM was then added to cells (six dilutions, with final concentrations ranging from 300 nM to 1.23 nM) for 2 hours before washing with DPBS and detaching with 0.25% Trypsin/EDTA. Cells were pelleted in 96-well conical bottom plates, washed once with FACS Buffer with BSA (Rockland Immunochemicals), and resuspended in FACS Buffer with BSA. Uptake of fluorescently labelled IgE was measured by analyzing median cellular AF647 intensity by flow cytometry.
(§3) Cells were incubated with equimolar ratio of conjugate and AF647 IgE at indicated concentrations, with data normalized to unconjugated parent protein (Oma S35HWY57H-LC).

HepG2 cells = test: Externalization of conjugates from a cell following internalization (cycling), high-throughput format (Example 11); conditions: 50 nM conjugate 1 hour, stringent washes, Alexa Fluor 647-labelled a-human IgG 1 hour, FACS, normalized to unconjugated parent protein, average of two replicate wells
Method: as §1
The method was also adapted to a high-throughput format. In this assay, 25,000 HepG2 cells were plated in 96-well plates 48 hours before performing the experiment. The day of the experiment, cells were incubated with conjugate at indicated concentrations for 1 hour. Cells were then placed on ice to prevent trafficking/recycling during wash steps, and washed once with DPBS, once with sodium acetate buffer (20 mM, 150 mM NaCl, pH 5.2), once with Earle's Balanced Salt Solution (EBSS) adjusted to pH 2.5, and once again with DPBS, to remove conjugate from media and cell surface. Afterwards, 100 ul of prewarmed (to 37° C.) EMEM with 1 μg/ml of human a-IgG antibody conjugated to Alexa Fluor647 fluorophores was added to cells for 1 hour before washing with DPBS and detaching with 0.25% Trypsin/EDTA. Cells were pelleted in 96-well conical bottom plates, washed once with FACS Buffer with BSA (Rockland Immunochemicals), resuspended FACS Buffer with BSA and median AF647 intensity was analyzed by flow cytometry. The amount of conjugate capable of cycling to the cell surface (being externalized from the cell) and binding to the Alexa Fluor647 labelled α-IgG was measured by analyzing median cellular 647 fluorescence intensity by flow cytometry. […]. Reported values are the average of the values of two replicate wells.

[2] = tested on: Alexa Fluor647 labelled human IgE; test: Uptake assay: internalization of Alexa Fluor 647 labelled IgE in wild type HepG2 cells (Example 6); conditions: equimolar conjugate and AF647 IgE, 2 hours, median cellular AF647 intensity by flow cytometry, normalized to unconjugated parent protein
Method: as §1, §2, §3

recombinant IgE = test: Degradation of super-stoichiometric levels of target in HepG2 cells (Example 13, Table 31); conditions: 1 nM conjugate and 25 nM IgE for three days, (A-B)/C IgE depleted relative to conjugate, average of two replicate wells
Method: as §1
For evaluation of compounds in a high throughput format, 25,000 HepG2 cells were plated in a 96-well plate. The following day, 50 ul of 1 nM conjugate and 25 nM recombinant IgE in EMEM were added to the cells. 50 ul of the initial stock of conjugate:IgE was saved to quantify for an initial time point. Three days later, the media was collected from cells, and both initial and 72 hour time points were quantified for IgE concentration using the MSD assay.
HepG2 cells were incubated in media containing 1 nM conjugate and 25 nM IgE for three days. Concentrations of IgE at beginning and end of experiment were quantified by ELISA-based assay. Molar equivalents of IgE depleted relative to conjugate added are shown, calculated as (A-B)/C, where A is the initial concentration of IgE, B is the concentration of IgE at day three, and C is the concentration of conjugate. Reported values are the average of the values of two replicate wells.

[3] = tested on: LysoLight-labelled human IgE; test: Lysosomal degradation of LysoLight-labelled IgE in HepG2 cells, live cell imaging (Example 7); conditions: equimolar conjugate:LysoLight IgE, area under the curve of deep red fluorescence over three days, normalized to unconjugated parent protein
Method: as §1
HepG2 cells (15,000) were plated in 96-well plates 72 hours before performing the experiment. On the day of the experiment, indicated the conjugate was diluted in fresh EMEM and mixed with an equimolar stock of LysoLight-labelled human IgE (Enzo Life Sciences, BPD-DIA-HE1), at 200 nM of each compound. The precomplexed conjugate:IgE mixture was incubated at room temperature for 30 minutes. During the precomplexing step, media from HepG2 was removed, and 40 ul of EMEM with 1/100 Fc Receptor Blocking Solution (Biolegend Human TruStain FcX, 422302) was added. Cells incubated in the receptor blocking solution for 10 minutes while making serial dilutions (1:3) of conjugate:IgE stock solution in EMEM. 40 ul of the conjugate:IgE mixture in EMEM was then added to cells (five dilutions, with final concentrations ranging from 100 nM to 1.23 nM). Cells were placed in an IncuCyte Live-Cell Analysis System (Sartorius) for long term live cell imaging analysis (10× magnification, 3 images per well). One hour after addition of compound, image acquisition to measure red fluorescence from the LysoLight probe was started, with further Images collected every hour for 72 hours. Fluorescence of the LysoLight probe only occurs when cleaved by lysosomal cathepsin proteases, confirming lysosomal delivery and degradation of target. After 72 hours, mean red fluorescence was measured for each time point, and the area under the curve of fluorescence overtime was used to measure total degradation over the 3-day time period.

human IgE = test: Degradation of initial and subsequent dose of target in HepG2 cells (Example 12, Table 30); conditions: normalized to unconjugated; for Normalized Fluorescence Post Wash Median Green: after wash, probe-conjugated IgE added for 4 hours, subsequent dose of target; for Normalized Fluorescence Precomplex Median Deep Red: precomplexed equimolar conjugate:IgE (cathepsin-cleavable quenched fluorescent probe) added for 2 hours, initial dose of target
Method: as §1
HepG2 cells (25,000) were plated in 96-well plates 48 hours before performing the experiment. On the day of the experiment, indicated conjugate was diluted in fresh EMEM as a 2× stock, and mixed with an equimolar stock of human IgE (Enzo Life Sciences, BPD-DIA-HE 1) conjugated to a cathepsin-cleavable quenched fluorescent probe. The precomplexed conjugate:IgE mixture was incubated at 37 degrees Celsius for 30 minutes. Media from HepG2 was removed, and conjugate:IgE mixture in EMEM was added to cells for 2 hours. Cells were then placed on ice to prevent trafficking/recycling during wash steps, and washed once with DPBS, once with sodium acetate buffer (20 mM, 150 mM NaCl, pH 5.2), once with Earle's Balanced Salt Solution (EBSS) adjusted to pH 2.5, and once again with DPBS, to remove conjugate from media and cell surface. Afterwards, 100 ul of prewarmed (to 37 degrees Celsius) EMEM with cathepsin-cleavable quenched fluorescent probe-conjugated IgE was added to cells for 4 hours before washing with DPBS and detaching with 0.25% Trypsin/EDTA. Cells were pelleted in 96-well conical bottom plates, washed once with FACS Buffer with BSA (Rockland Immunochemicals), resuspended FACS Buffer with BSA and median 488 and 647 intensity was analyzed by flow cytometry. Delivery of labelled IgE to the lysosome and subsequent cleavage of initial precomplexed IgE was measured by analyzing median cellular 647 intensity, while cleavage of the post wash addition of IgE, which should only be degraded by recycling conjugates which released the first round of precomplexed IgE, was analyzed by median cellular 488 intensity. HepG2 cells were treated with human IgE (Enzo Life Sciences, BPD-DIA-HE1) conjugated to a cathepsin-cleavable quenched deep red (647) fluorescent probe precomplexed to conjugate fortwo hours, then washed, and fresh media with IgE conjugated to a green (488) cathepsin-cleavable fluorescent probe was then added without conjugate. […] Fluorescence values were measured by FACS and normalized to unconjugated parent protein. Reported values are the average of the values of two replicate wells.

Structure (SMILES)	Normalized Fluorescence 100 nM ASGPR KO [1]	Normalized Fluorescence (HepG2 cells)	Normalized Fluorescence 3.7 nM WT [2]	Normalized Fluorescence 100 nM WT [2]	Average Degradation (Molar equivalents) (recombinant IgE)	Normalized Fluorescence 3.7 nM [3]	Normalized Fluorescence 100 nM [3]	Normalized Fluorescence Post Wash Median Green (human IgE)	Normalized Fluorescence Precomplex Median Deep Red (human IgE)
CC(=O)N[C@@H]1[C@@H](O)[C@@H](O)[C@@H](CO)O[C@@H]1CCCOCCOCCNC(=O)NCCCC(CCCNC(=O)NCCOCCOCCC[C@H]1O[C@H](CO)[C@H](O)[C@H](O)[C@H]1NC(C)=O)(CCCNC(=O)NCCOCCOCCC[C@H]1O[C@H](CO)[C@H](O)[C@H](O)[C@H]1NC(C)=O)NC(=O)NCCOCCOCCOCCNC(=O)c1ccc(N2C(=O)C=CC2=O)cc1 [Compound 2314]	1.0	40.5	69.0	265.7	6.5 Molar equivalents	13.9	3.9	3.5	3.6
CC(=O)N[C@@H]1[C@@H](O)[C@@H](O)[C@@H](CO)O[C@@H]1CCCOCCOCCNC(=O)NCCCC(CCCNC(=O)NCCOCCOCCC[C@H]1O[C@H](CO)[C@H](O)[C@H](O)[C@H]1NC(C)=O)(CCCNC(=O)NCCOCCOCCC[C@H]1O[C@H](CO)[C@H](O)[C@H](O)[C@H]1NC(C)=O)NC(=O)NCCOCCOCCOCCNS(=O)(=O)c1ccc(N2C(=O)C=CC2=O)cc1 [Compound 2315]	1.1	48.8	77.7	275.7	4.5 Molar equivalents	15.6	4.0	3.1	3.3
CC(=O)N[C@@H]1[C@@H](O)[C@@H](O)[C@@H](CO)O[C@@H]1CCCOCCOCCNC(=O)NCCCC(CCCNC(=O)NCCOCCOCCC[C@H]1O[C@H](CO)[C@H](O)[C@H](O)[C@H]1NC(C)=O)(CCCNC(=O)NCCOCCOCCC[C@H]1O[C@H](CO)[C@H](O)[C@H](O)[C@H]1NC(C)=O)NC(=O)NCCOCCOCCOCCN(C)C(=O)CBr [Compound 2316]	1.1	45.7	68.4	314.3	5.7 Molar equivalents	13.4	3.7	3.5	3.8
CC(=O)N[C@@H]1[C@@H](O)[C@@H](O)[C@@H](CO)O[C@@H]1CCCCCOCCOCCNC(=O)NCCCOCC(COCCCNC(=O)NCCOCCOCCCCC[C@@H]1O[C@@H](CO)[C@@H](O)[C@@H](O)[C@@H]1NC(C)=O)(COCCCNC(=O)NCCOCCOCCCCC[C@H]1O[C@H](CO)[C@H](O)[C@H](O)[C@H]1NC(C)=O)NC(=O)CCOCCOCCOCCNC(=O)c1ccc(N2C(=O)C=CC2=O)cc1 (stereo partly drawn) [Compound 2317]	1.1	48.8	76.2	255.2	4.0 Molar equivalents	15.2	4.2	3.7	3.6
CC(=O)N[C@@H]1[C@@H](O)[C@@H](O)[C@@H](CO)O[C@@H]1CCCOCCOCCNC(=O)NCCCC(C)(CCCNC(=O)NCCOCCOCCC[C@H]1O[C@H](CO)[C@H](O)[C@H](O)[C@H]1NC(C)=O)NC(=O)NCCOCCOCCOCCNC(=O)c1ccc(N2C(=O)C=CC2=O)cc1 (stereo partly drawn) [Compound 2318, N,N′-((2R,2′R,3R,3′R,4R,4′R,5R,5′R,6R,6′R)-(16-(3-(1-(4-(2,5-dioxo-2,5-dihydro-1H-pyrrol-1-yl)phenyl)-1-oxo-5,8,11-trioxa-2-azatridecan-13-yl)ureido)-16-methyl-11,21-dioxo-4,7,25,28-tetraoxa-10,12,20,22-tetraazahentriacontane-1,31-diyl)bis(4,5-dihydroxy-6-(hydroxymethyl)tetrahydro-2H-pyran-2,3-diyl))diacetamide]	1.0	27.4	44.1	159.1	4.2 Molar equivalents	4.1	2.1	2.0	2.4
